Measurements as given in patent US9131719B2, “Use of certain neoflavonoids for intensifying and/or producing a sensory impression of sweetness” (SYMRISE AG, priority 2011, dated 2015).

How the values were obtained:
Type in all cases: in vivo
[1] = tested on: impression of sweetness of a 5 wt % sucrose solution; assay: Intensification of the impression of sweetness of a sugar solution, assessed by a panel of experts; conditions: for % intensification of the impression of sweetness: calculated from mean values with vs without test substance; for Impression of sweetness (1-10) with: scale 1 [not sweet] to 10 [extremely sweet]; for sweetness intensifying action (in words): residue at position C5 instead of C7, compared with compounds to be used according to the invention
Protocol: For quantifying the intensification of the impression of sweetness, the sweetness of a 5 wt % sucrose solution (consisting of 5 wt % sucrose in water) and of a sample that consisted of water, 5 wt % sucrose and a specified amount (i.e. that given below in each case) of test substance was determined by a panel of experts. The assessment was based on a scale from 1 [not sweet] to 10 [extremely sweet]. The intensification of the impression of sweetness (in %) was calculated from the respective mean values of the assessments of the sucrose solution and of the respective sample to be investigated containing the test substance. The test substances used were in each case a racemic mixture of the following compounds to be used according to the invention. […]

[2] = tested on: bitterness of a solution containing 100 ppm naringin; assay: Reduction of bitterness of a solution of bitter substance (naringin), assessed by a panel of experts; conditions: 25 ppm test substance
From the text: (§1) To quantify the reduction (i.e. the masking or decrease) of the impression of bitterness in a sample, the bitterness of a solution containing 500 ppm caffeine or 100 ppm naringin was compared by a panel of experts, in each case against a sample that contained 500 ppm caffeine or 100 ppm naringin and additionally the amount stated in each case of a substance to be assessed (with respect to capacity for reducing bitterness) (assessment scale: 1 [not bitter] through 10 [extremely bitter]). Evaluation, i.e. calculation of the reduction (in %) of the impression of bitterness, was based in each case on the mean values of the assessment of the panel of experts.

[3] = tested on: bitterness of a solution containing 500 ppm caffeine; assay: Reduction of bitterness of a solution of bitter substance (caffeine), assessed by a panel of experts; conditions: 50 ppm test substance
From the text: as §1

[4] = 50 ppm test substance in 5 wt % sucrose solution
[5] = 50 ppm test substance in water with 5 wt % sucrose
[6] = scale 1 [not bitter] through 10 [extremely bitter]

Row | Molecule | % intensification of the impression of sweetness [1, 4] | Impression of sweetness (1-10) with [1, 5] | other results
1 | COc1cc([C@@H]2CC(=O)Oc3cc(O)cc(OC)c32)ccc1O [(A) + (B), (4S)-7-Hydroxy-4-(4-hydroxy-3-methoxyphenyl)-5-methoxy-chroman-2-one (A) and (4R)-7-hydroxy-4-(4-hydroxy-3-methoxyphenyl)-5-methoxy-chroman-2-one (B)] | 8% (p < 0.5) | 5.8 ± 1.4 | 
2 | COc1cc(O)c2c(c1)OC(=O)C[C@H]2c1ccc(O)c(OC)c1 [(23) + (24), (4S)-5-Hydroxy-4-(4-hydroxy-3-methoxyphenyl)-7-methoxy-chroman-2-one (23) and (4R)-5-hydroxy-4-(4-hydroxy-3-methoxyphenyl)-7-methoxy-chroman-2-one (24)] | 47% | 7.6 ± 1.5 | 
3 | COc1cc(OC)c2c(c1)OC(=O)C[C@H]2c1ccc(O)c(OC)c1 [(17) + (18), (4S)-4-(4-Hydroxy-3-methoxyphenyl)-5,7-dimethoxy-chroman-2-one (17) and (4R)-4-(4-hydroxy-3-methoxyphenyl)-5,7-dimethoxy-chroman-2-one (18)] | 37% (p < 0.002) | 7.1 ± 1.8 | % reduction of the impression of bitterness ([2]; calculated from mean values): 9.9%; Impression of bitterness (1-10) with [2, 6]: 4.8 ± 2.5
4 | (4S)-7-Methoxy-4-(4-methoxyphenyl)chroman-2-one (1) and (4R)-7-methoxy-4-(4-methoxyphenyl)chroman-2-one (2) [(1) + (2)] | 12% (p < 0.08) | 5.4 ± 0.9 | 
5 | (4S)-4-(4-Hydroxyphenyl)-7-methoxy-chroman-2-one (19) and (4R)-4-(4-hydroxyphenyl)-7-methoxy-chroman-2-one (20) [(19) + (20)] | 14% (p < 0.09) | 5.4 ± 1.1 | % reduction of the impression of bitterness ([3]; calculated from mean values): 9.9%; Impression of bitterness (1-10) with [3, 6]: 3.6 ± 1.5
6 | COc1cc([C@H]2CC(=O)Oc3cc(O)cc(OC)c32)ccc1O [(B), (4R)-7-hydroxy-4-(4-hydroxy-3-methoxyphenyl)-5-methoxy-chroman-2-one] |  |  | sweetness intensifying action (in words) [1]: much lower sweetness intensifying action
7 | COc1cc([C@@H]2CC(=O)Oc3cc(O)cc(OC)c32)ccc1O [(A), (4S)-7-Hydroxy-4-(4-hydroxy-3-methoxyphenyl)-5-methoxy-chroman-2-one] |  |  | sweetness intensifying action (in words) [1]: much lower sweetness intensifying action
8 | CCCOc1ccc2c(c1)OC(=O)C[C@H]2c1ccc(O)cc1 [(11) + (12), (4S)-4-(4-Hydroxyphenyl)-7-propoxy-chroman-2-one (11) and (4R)-4-(4-hydroxyphenyl)-7-propoxy-chroman-2-one (12)] |  |  | % intensification of the impression of sweetness ([1]; 25 ppm test substance in 5 wt % sucrose solution): 14% (p < 0.09); Impression of sweetness (1-10) with ([1]; 25 ppm test substance in water with 5 wt % sucrose): 6.6 ± 1.5
